From PMC12467033, “Exploring the Inhibitory Potential of Six Porphyrin Compounds Against α-Amylase and α-Glucosidase Linked to Diabetes” (Biomolecules, 2025)
Several values for one entry are separate records, joined by “and”; a condition that tells them apart may be missing. Equal entries are not always repeated. Where two headings read alike, the source gives them in different places.

Assays:
[1] = target: T1, α-amylase (Sus scrofa, UniProt P00690); experiment: Mode of α-AMY inhibition (reversibility, Lineweaver–Burk kinetics); assay type: biochemical; details: for type of inhibition of α-amylase: Lineweaver–Burk plots; for reversibility of inhibition of α-amylase: enzyme 100–400 U/L, substrate 5 mmol/L
T1 sequence (P00690 16-511): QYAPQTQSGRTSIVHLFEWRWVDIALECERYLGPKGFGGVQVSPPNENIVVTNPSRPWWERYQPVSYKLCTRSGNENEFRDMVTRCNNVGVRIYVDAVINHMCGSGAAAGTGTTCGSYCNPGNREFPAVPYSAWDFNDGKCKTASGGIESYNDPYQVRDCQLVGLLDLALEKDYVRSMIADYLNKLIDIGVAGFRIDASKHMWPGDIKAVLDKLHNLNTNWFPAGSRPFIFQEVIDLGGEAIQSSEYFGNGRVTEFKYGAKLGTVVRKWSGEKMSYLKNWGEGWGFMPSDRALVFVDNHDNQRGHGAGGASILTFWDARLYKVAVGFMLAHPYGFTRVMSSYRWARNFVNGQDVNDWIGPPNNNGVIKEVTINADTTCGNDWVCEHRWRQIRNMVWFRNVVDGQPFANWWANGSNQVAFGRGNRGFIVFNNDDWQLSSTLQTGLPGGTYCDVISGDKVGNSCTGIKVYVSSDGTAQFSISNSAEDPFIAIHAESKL
From the text: (§1) In the experiment, the concentration of the fixed substrate Gal-G2-α-CNP/pNPG solution was 5 mmol/L, and the concentrations of the two enzymes (100, 200, 300, 400 U/L) were used to determine the effect of different concentrations of porphyrins on enzyme activity. The concentration of the enzyme was 200 U/L, and the concentration of the substrate Gal-G2-α-CNP/pNPG solution (2.5, 5, 7.5, 10 mmol/L) was used to determine the effect of different concentrations of porphyrins on the enzyme-catalyzed substrate activity.
(§2) Upon identifying the type of inhibition, the kinetic equations vary for different inhibition types.
(§3) In the formula, v, Vmax, Km, Ki, and Kis represent the reaction rate, maximum reaction rate, Michaelis constant, and free enzyme inhibition constant, respectively, and the binding enzyme inhibition constant. [S] denotes the substrate concentration. [I] denotes the inhibitor concentration.

[2] = target: T2, α-glucosidase (Saccharomyces cerevisiae, UniProt P53341); assay type: biochemical; details: for type of inhibition of α-glucosidase: Lineweaver–Burk plots; for reversibility of inhibition of α-glucosidase: enzyme 100–400 U/L, substrate 5 mmol/L; for Kis: enzyme–substrate complex inhibition constant
From the text: as §1, §2, §3

[3] = target: T1, α-amylase; experiment: Fluorescence quenching, binding and thermodynamics with α-amylase; details: for quenching mechanism of α-amylase fluorescence: Stern–Volmer plots; for quenching mechanism of α-amylase fluorescence / ΔH^0 / ΔS^0: 298–310 K; for ΔH^0 / ΔS^0: Van’t Hoff
From the text: In the α-amylase experiment, a series of porphyrins and amylase (200 U/L) were mixed in a volume ratio of 1:1.
The Stern–Volmer equation [35] was adopted to determine the quenching mechanisms between six porphyrin compounds and both enzymes in the experimental group, with Formula (6):(6) F0/F=1+Ksv[Q]=1+Kqτ0[Q]
The Stern–Volmer equation was adapted based on experimental data to more accurately characterize the quenching behavior [36], with Formula (7):(7) F0/F=e^Ksv[Q]=e^Kqτ0[Q]
In the formula, the fluorescence quenching ratio was calculated as F0/F, where F0 corresponds to the emission intensity of pure α-amylase solution (control) and F denotes the intensity measured after the incremental addition of porphyrin ligands. KSV and Kq denote the Stern–Volmer quenching constant and the bimolecular quenching rate constant, respectively, τ0 (10^−8 s) is the average fluorescence lifetime of the fluorophore in the absence of quencher, and [Q] indicates the concentration of porphyrin compounds.
Due to the presence of an internal filtration effect, a decrease in the fluorescence intensity of the system may occur. Therefore, all fluorescence data were corrected using Formula (8) to eliminate the internal filtration effect.(8) Fcor=Fobse^(Aex+Aem)/2
The evaluation of the interaction forces between porphyrin compounds and the two enzymes can be achieved by calculating thermodynamic parameters. When both ΔH^0 and ΔS^0 are positive, the predominant interaction force is hydrophobic. When both ΔH^0 and ΔS^0 are negative, the main forces are hydrogen bonding and van der Waals forces. When ΔH^0 < 0 and ΔS^0 > 0, the primary interaction is electrostatic attraction.
The thermodynamic parameters were calculated using Formulas (9) and (10), and then the Van’t Hoff plot for the interactions between the porphyrin compounds and the two enzymes was generated by plotting lnKa on the Y-axis versus 1/T on the X-axis.(9) lnKa=−ΔH^0/RT+ΔS^0/R (10) ΔG^0=ΔH^0−TΔS^0=−RTlnKa

[4] = target: T1, α-amylase; experiment: FTIR secondary structure analysis of α-AMY complexes; details: enzyme–porphyrin molar ratio 1:2, amide I band
From the text: (§4) A molar ratio of 1:2 (α-amylase/α-glucosidase)–porphyrin solution was placed in a cryocentrifugal concentrator and the dried solid sample was mixed with dry KBr and measured using a Nicolet IS-50 FTIR Spectrometer (ThermoFisher, Waltham, MA, USA) with a scanning range of 4000–400 cm^−1 and a resolution of 4 cm^−1. The overlapping peaks in the amide I band (1700–1600 cm^−1) were further analyzed into multiple feature sub-peaks, and quantitative analysis of the relative content of various secondary structures in proteins using curve fitting methods was performed.

[5] = target: T2, α-glucosidase; experiment: FTIR secondary structure analysis of α-GLU complexes; details: enzyme–porphyrin molar ratio 1:2, amide I band
From the text: as §4

[6] = free enzyme inhibition constant

T2 sequence (P53341 whole entry): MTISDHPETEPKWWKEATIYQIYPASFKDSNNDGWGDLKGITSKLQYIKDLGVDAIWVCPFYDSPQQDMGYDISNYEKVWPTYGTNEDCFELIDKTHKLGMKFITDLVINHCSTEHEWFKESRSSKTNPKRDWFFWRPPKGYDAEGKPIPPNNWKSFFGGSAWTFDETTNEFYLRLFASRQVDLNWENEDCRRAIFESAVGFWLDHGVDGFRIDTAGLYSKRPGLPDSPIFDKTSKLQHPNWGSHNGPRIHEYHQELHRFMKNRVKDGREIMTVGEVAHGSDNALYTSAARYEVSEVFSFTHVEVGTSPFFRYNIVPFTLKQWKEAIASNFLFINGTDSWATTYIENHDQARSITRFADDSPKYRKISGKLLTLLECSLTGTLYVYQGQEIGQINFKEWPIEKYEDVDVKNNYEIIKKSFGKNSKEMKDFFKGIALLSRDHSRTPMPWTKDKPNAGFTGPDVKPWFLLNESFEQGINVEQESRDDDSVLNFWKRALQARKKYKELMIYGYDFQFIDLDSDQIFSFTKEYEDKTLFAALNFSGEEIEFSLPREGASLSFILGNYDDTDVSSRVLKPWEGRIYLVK

Nc1ccc(-c2c3nc(c(-c4ccc(N)cc4)c4ccc([nH]4)c(-c4ccc(N)cc4)c4nc(c(-c5ccc(N)cc5)c5ccc2[nH]5)C=C4)C=C3)cc1 [TAPP]
Vmax ([1]; C 2 μg/mL): 0.1670 ± 0.0030 ΔOD/min | Vmax ([1]; C 4 μg/mL): 0.1562 ± 0.0039 ΔOD/min | Vmax ([1]; C 6 μg/mL): 0.1425 ± 0.0032 ΔOD/min | Vmax ([1]; C 8 μg/mL): 0.1328 ± 0.0034 ΔOD/min | Vmax ([1]; C 10 μg/mL): 0.1243 ± 0.0028 ΔOD/min | type of inhibition of α-amylase [1]: mixed type | reversibility of inhibition of α-amylase [1]: reversible inhibition | Kis ([1]; enzyme–substrate complex inhibition constant): 21.2847 ± 0.0677 µg/mL | Vmax ([2]; C 12.5 μg/mL): 0.0791 ± 0.0021 ΔOD/min | Vmax ([2]; C 15 μg/mL): 0.0767 ± 0.0013 ΔOD/min | Vmax ([2]; C 17.5 μg/mL): 0.0736 ± 0.0015 ΔOD/min | Vmax ([2]; C 20 μg/mL): 0.0711 ± 0.0011 ΔOD/min | Vmax ([2]; C 22.5 μg/mL): 0.0688 ± 0.0012 ΔOD/min | type of inhibition of α-glucosidase [2]: mixed type | reversibility of inhibition of α-glucosidase [2]: reversible inhibition | Kis [2]: 55.1227 ± 0.1247 µg/mL | quenching mechanism of α-amylase fluorescence [3]: pure static quenching | Kq ([3]; T 298 K): 4.07 ± 0.05 ×10^12 L/mol/s | Ksv ([3]; T 298 K): 4.07 ± 0.05 ×10^4 L/mol | n (number of binding sites) ([3]; T 298 K): 1.48 | ΔG^0 ([3]; T 298 K): -9.168 ± 0.0263 kcal/mol | Kq ([3]; T 304 K): 3.37 ± 0.02 ×10^12 L/mol/s | Ksv ([3]; T 304 K): 3.37 ± 0.02 ×10^4 L/mol | n (number of binding sites) ([3]; T 304 K): 1.40 | ΔG^0 ([3]; T 304 K): -8.817 ± 0.0287 kcal/mol | Kq ([3]; T 310 K): 3.07 ± 0.09 ×10^12 L/mol/s | Ksv ([3]; T 310 K): 3.07 ± 0.09 ×10^4 L/mol | n (number of binding sites) ([3]; T 310 K): 1.31 | ΔG^0 ([3]; T 310 K): -8.329 ± 0.0239 kcal/mol | ΔH^0 [3]: -29.935 ± 0.0287 kcal/mol | ΔS^0 [3]: −291.29 ± 0.12 J/mol/k | Random Coil [4]: 9.94% and 9.94 ± 0.02% | α-Helix [4]: 22.45 ± 0.07% | β-Antiparallel [4]: 18.98% and 18.98 ± 0.04% | β-Sheet [4]: 14.62 ± 0.03% | β-Turn [4]: 34.00 ± 0.09% | Random Coil [5]: 23.93 ± 0.05% | α-Helix [5]: 22.82 ± 0.08% | β-Antiparallel [5]: 1.96 ± 0.01% | β-Sheet [5]: 12.99 ± 0.13% | β-Turn [5]: 38.30 ± 0.08%

O=C(O)c1ccc(-c2c3nc(c(-c4ccc(C(=O)O)cc4)c4ccc([nH]4)c(-c4ccc(C(=O)O)cc4)c4nc(c(-c5ccc(C(=O)O)cc5)c5ccc2[nH]5)C=C4)C=C3)cc1.[Ni+2] [Ni–TCPP, nickel (II) meso-tetra (4-carboxyphenyl) porphine]
Km ([1]; C 40 μg/mL): 3.6229 ± 0.1082 µg/mL | Vmax ([1]; C 40 μg/mL): 0.1456 ± 0.0043 ΔOD/min | Km ([1]; C 80 μg/mL): 3.6134 ± 0.1167 µg/mL | Vmax ([1]; C 80 μg/mL): 0.1238 ± 0.0040 ΔOD/min | Km ([1]; C 120 μg/mL): 3.6072 ± 0.0593 µg/mL | Vmax ([1]; C 120 μg/mL): 0.1032 ± 0.0017 ΔOD/min | Km ([1]; C 160 μg/mL): 3.6027 ± 0.1141 µg/mL | Vmax ([1]; C 160 μg/mL): 0.0901 ± 0.0029 ΔOD/min | Km ([1]; C 200 μg/mL): 3.5987 ± 0.0938 µg/mL | Vmax ([1]; C 200 μg/mL): 0.0799 ± 0.0021 ΔOD/min | type of inhibition of α-amylase [1]: non-competitive inhibition | reversibility of inhibition of α-amylase [1]: reversible inhibition | Ki [1, 6]: 157.9542 ± 0.1375 µg/mL | Km [2]: 3.0491 ± 0.0776 µg/mL and 3.3243 ± 0.0748 µg/mL and 3.5279 ± 0.0812 µg/mL and 3.8090 ± 0.1419 µg/mL and 4.1248 ± 0.0704 µg/mL | Vmax ([2]; C 5 μg/mL): 0.1036 ± 0.0026 ΔOD/min | Vmax ([2]; C 7.5 μg/mL): 0.0909 ± 0.0020 ΔOD/min | Vmax ([2]; C 10 μg/mL): 0.0791 ± 0.0018 ΔOD/min | Vmax ([2]; C 15 μg/mL): 0.0628 ± 0.0023 ΔOD/min | Vmax ([2]; C 25 μg/mL): 0.0444 ± 0.0008 ΔOD/min | type of inhibition of α-glucosidase [2]: mixed type | reversibility of inhibition of α-glucosidase [2]: reversible inhibition | Kis [2]: 9.2257 ± 0.0312 µg/mL | Ki [2, 6]: 3.8703 ± 0.0201 µg/mL | quenching mechanism of α-amylase fluorescence [3]: pure static quenching | Ka (binding constant) ([3]; T 298 K): 99.31 ± 0.12 ×10^5 L/mol | Kq ([3]; T 298 K): 9.78 ± 0.03 ×10^12 L/mol/s | Ksv ([3]; T 298 K): 9.78 ± 0.03 ×10^4 L/mol | n (number of binding sites) ([3]; T 298 K): 1.44 | ΔG^0 ([3]; T 298 K): -9.541 ± 0.019 kcal/mol | Ka (binding constant) ([3]; T 304 K): 5.75 ± 0.04 ×10^5 L/mol | Kq ([3]; T 304 K): 8.47 ± 0.07 ×10^12 L/mol/s | Ksv ([3]; T 304 K): 8.47 ± 0.07 ×10^4 L/mol | n (number of binding sites) ([3]; T 304 K): 1.19 | ΔG^0 ([3]; T 304 K): -8.011 ± 0.014 kcal/mol | Ka (binding constant) ([3]; T 310 K): 0.61 ± 0.02 ×10^5 L/mol | Kq ([3]; T 310 K): 7.11 ± 0.05 ×10^12 L/mol/s | Ksv ([3]; T 310 K): 7.11 ± 0.05 ×10^4 L/mol | n (number of binding sites) ([3]; T 310 K): 0.99 | ΔG^0 ([3]; T 310 K): -6.785 ± 0.017 kcal/mol | ΔH^0 [3]: -78.002 ± 0.043 kcal/mol | ΔS^0 [3]: −961.90 ± 0.08 J/mol/k | Random Coil [4]: 21.40 ± 0.05% | α-Helix [4]: 20.76 ± 0.06% | β-Antiparallel [4]: 10.30 ± 0.03% | β-Sheet [4]: 11.20 ± 0.02% | β-Turn [4]: 36.33 ± 0.13% | Random Coil [5]: 26.76 ± 0.07% | α-Helix [5]: 19.75 ± 0.07% | β-Antiparallel [5]: 1.88 ± 0.01% | β-Sheet [5]: 13.68 ± 0.04% | β-Turn [5]: 37.94 ± 0.10%
